Results as given in patent US20130217908A1, “STABILISATION OF RADIOPHARMACEUTICAL PRECURSORS” (GE HEALTHCARE LIMITED, priority 2010, published 2013).

Experiments:
[1] = Storage stability of the precursor of formula II with or without a drying agent, degradation by 19F NMR; format: physicochemical
Experimental: To test the stability of the precursor of formula II when packed with a drying agent, a sample of the precursor was analysed by ^19F and ^1H measurements.
The following drying agents were used:
Molecular sieve: 0.4 nm, Merck, Art. 5708, beads about 2 mm, pore size 4A Silica: Kiselgel, Merck, product no. 1.01969.5000
The drying agents used in the tests are typical drying agents for removing water from solvents and desiccators. The drying agents were both dried at 120° C. for about 90 hours before use.
The storage conditions for the precursor together with a drying agent were tested by storing together in the bottom of a small sample glass (mixed together) placed on a shelf in the lab (i.e. at room temperature). Also some samples without drying agent were set up. The first analysis of the samples with solid product was performed after 3.5 months storage and a second analysis was carried out after 5 months storage.

[2] = Earlier stability testing of the compound of formula II at set storage temperatures; format: physicochemical
[3] = solid, stored in a small sample glass at room temperature
[4] = solid, stored in a small sample glass at room temperature, listed as precursor
[5] = stored in freezer, reference, no drying agent

## CCOC(=O)[C@]1(NC(=O)OC(C)(C)C)C[C@@H](OS(=O)(=O)C(F)(F)F)C1 [PRECURSOR, 1-(N-(t-butoxycarbonyl)amino)-3-[((trifluoromethyl)sulfonyl)oxy]-cyclobutane-1-carboxylic acid ethyl ester]
[1]; [3]
  19F NMR results, degradation (mole %) after 3.5 months: 30.7 mole %
  19F NMR results, degradation (mole %) after 5 months: 96.6 mole %
[1]; [4]
  19F NMR results, degradation (mole %) after 3.5 months: about 30 mole %
  19F NMR results, degradation (mole %) after 5 months: about 97 mole %
[1]; [5]
  19F NMR results, degradation (mole %) after 3.5 months: 0.7 mole %
  19F NMR results, degradation (mole %) after 5 months: 0.6 mole %
[2]
  hygroscopicity (observation): hygroscopic
[2]; stability testing at 25° C.
  period over which the compound is stable: ~1 month
[2]; storage between −20° C. and −5° C.
  stability at storage conditions: acceptable stability
